From patent US4156731A, “Heterocyclic oxime compounds and carbamoyloxime derivatives” (priority 1976, dated 1979)

Tests used:
[1] = test system: Mexican bean beetle (Epilachna varivestis, Muls.); assay: Mexican Bean Beetle Leaf Spray Test; format: in vivo; design: key: A: Excellent control; B: Partial control; C: No control; details: fourth instar larvae, 500 ppm leaf spray, three days
Description: (§1) Selected species of the new compounds were evaluated to determine their pesticidal activity against mites and certain insects, including anaphid, a caterpillar, a beetle and a fly.
(§2) Suspensions of the test compounds were prepared by dissolving one gram of compound in 50 milliliters of acetone in which had been dissolved 0.1 gram (10 percent of the weight of compound) of an alkylphenoxy polyethoxyethanol surfactant, as an emulsifying or dispersing agent. The resulting solution was mixed into 150 milliliters of water to give roughly 200 milliliters of a suspension containing the compound in finely divided form. The thus-prepared stock suspension contained 0.5 percent by weight of test compound. The test concentrations in parts per million by weight employed in the tests described hereinbelow were obtained by appropriate dilutions of the stock suspension with water. The test procedures were as follows:
Mexican Bean Beetle Leaf Spray Test
Fourth instar larvae of the Mexican bean beetle (Epilachna varivestis, Muls.), reared on Tendergreen bean plants at a temperature of 80°±5° F. and 50±5 per cent relative humidity, were the test insects.
The test compounds were formulated by diluting the stock suspension with water to give a suspension containing 500 parts of test compound per million parts of final formulation. Potted Tendergreen bean plants of standard height and age were placed on a revolving turntable and sprayed with 100-110 milliliters of test compound formulation by use of DeVilbiss spray gun set at 10 psig air pressure. This application, which lasted 25 seconds, was sufficient to wet plants to run-off. As a control, 100-110 milliliters of a water-acetone-emulsifier solution containing no test compound were also sprayed on infested plants. When dry, the paired leaves were separated and each was placed in a 9 centimeter Petri dish lined with moistened filter paper. Five randomly selected larvae were introduced into each dish, and the dishes were closed. The closed dishes were labeled and held at a temperature of […]. for three days. Although the larvae could easily consume the leaf within 24 to 48 hours, no more food was added. Larvae which were unable to move the length of the body, even upon stimulation, were considered dead.
(§3) In these tests the pesticidal activity of the compounds against aphid, mite, Southern Armyworm, Mexican Bean Beetle, and house fly was rated as follows: […]

[2] = test system: bean aphid (Aphis fabae Scop.); assay: Bean Aphid Foliage Spray Test; format: in vivo; design: key: A: Excellent control; B: Partial control; C: No control; details: 500 ppm foliage spray, 24 hour holding period
Description: as §1, §2
Bean Aphid Foliage Spray Test
Adults and nymphal stages of the bean aphid (Aphis fabae Scop.) reared on potted dwarf nasturtium plants at 65°-70° F. and 50-70 per cent relative humidity, constituted the test insects. For testing purposes, the number of aphids per pot was standardized to 100-150 by trimming plants containing excess aphids.
The test compounds were formulated by diluting the stock suspension with water to give a suspension containing 500 parts of test compound per million parts of final formulation.
The potted plants (one pot per compound tested) infested with 100-150 aphids, were placed on a revolving turntable and sprayed with 100-110 milliliters of test compound formulation by use of a DeVilbiss spray gun set at 40 psig. air pressure. This application, which lasted 25 seconds, was sufficient to wet the plants to run-off. As a control, 100-110 milliliters of a water-acetone-emulsifier solution containing no test compound were also sprayed on infested plants. After spraying, the pots were placed on their sides on a sheet of white standard mimeograph paper which had been previously ruled to facilitate counting. Temperature and humidity in the test room during the 24 hour holding period were 65°-70° F. and 50-70 per cent, respectively. Aphids which fell into the paper and were unable to remain standing after being uprighted were considered dead. Aphids remaining on the plants wre observed closely for movement and those which were unable to move the length of the body upon stimulator by prodding were considered dead. Per cent mortality was recorded for various concentration levels.
as §3

[3] = test system: house flies (Musca domestica, L.); assay: Fly Bait Test; format: in vivo; design: key: A: Excellent control; B: Partial control; C: No control; details: adults, 500 ppm in sugar bait, twenty four hours
Description: as §1, §2
Four to six day old adult house flies (Musca domestica, L.) reared according to the specifications of the Chemical Specialities Manufacturing Association (Blue Book, McNair-Dorland Co., NY., 1954; pages 234-244, 261) under controlled conditions of 80°±5° F. and 50±5 per cent relative humidity, were the test insects. The flies were immobilized by anesthetizing with carbon dioxide and twenty five immobilized individuals, males and females, were transferred to a cage consisting of a standard food stainer about five inches in diameter which was inverted over a wrapping-paper-covered surface. The test compounds were formulated by diluting the stock suspension with a 10 per cent (by weight) sugar solution to give a suspension containing 500 parts of test compound per million parts of final formulation, by weight. Ten milliliters of the test formulation were added to a souffle cup containing a one inch square of an absorbent cotton pad. This bait cup was introduced and centered on the blotting paper under the food strainer prior to admitting the anesthetized flies. The caged flies were allowed to feed on the bait for twenty four hours, at a temperature of 80°±5° F. and the relative humidity of 50±5 per cent.
as §3

[4] = Peroral toxicity to mammals (rat); details: in vivo, po, mortality rate of 50 percent, read-out: A. O. Rat LD50
Description: Certain of these compositions were also evaluated to determine their peroral toxicity to mammals. The animal selected for this experiment was the rat.

[5] = test system: two spotted mite (Tetranychus urticae Koch); assay: Mite Foliage Spray Test; format: in vivo; design: key: A: Excellent control; B: Partial control; C: No control; details: 500 ppm foliage spray, six days
Description: as §1, §2
Adults and nymphal stages of the two spotted mite (Tetranychus urticae Koch), reared on Tendergreen bean plants at 80±5 per cent relative humidity, were the test organisms. Infested leaves from a stock culture were placed on the primary leaves of two bean plants six to eight inches in height, growing in a two-and-a-half inch clay pot. 150-200 mites, a sufficient number for testing, transferred from the excised leaves to the fresh plants in a period of twenty four hours. Following the twenty four hour transfer period, the excised leaves were removed from the infested plants. The test compounds were formulated by diluting the stock suspension with water to give a suspension with water to give a suspension containing 500 parts of test compound per million parts of final formulation. The potted plants (one pot per compound) were placed on a revolving turntable and sprayed with 100-110 milliliters of test compound formulation by use of a DeVilbiss spray gun set at 40 psig. air pressure. This application, which lasted for 25 seconds, was sufficient to wet the plants to run-off. As a control, 100-110 milliliters of a water solution containing acetone and emulsifier in the same concentrations as the test compound formulation, but containing no test compound, were also sprayed on infested plants. The sprayed plants were held at 80±5 per cent relative humidity for six days, after which a mortality count of motile forms were made. Microscopic examination for motile forms was made on the leaves of the test plants. Any individual which was capable of locomotion upon prodding, was considered living.
as §3

[6] = test system: southern armyworm (Prodenia Eridania, (Cram.)); assay: Southern Armyworm Leaf Spray Test; format: in vivo; design: key: A: Excellent control; B: Partial control; C: No control; details: larvae, 500 ppm leaf spray, three days
Description: as §1, §2
Southern Armyworm Leaf Spray Test
Larvae of the southern armyworm (Prodenia Eridania, (Cram.), reared on Tendergreen bean plants at a temperature of 80°±5° F. and a relative humidity of 50±5 per cent, constituted the test insects.
The test compounds were formulated by diluting the stock suspension with water to give a suspension containing 500 parts of test compound per million parts of final formulation. Potted Tendergreen bean plants of standard height and age were placed on a revolving turntable and sprayed with […] of test compound formulation by use of a DeVilbiss spray gun set at 10 psig. air pressure.
This application, which lasted 25 seconds, was sufficient to wet plants to run-off. As a control, 100-110 milliliters of a water-acetone-emulsifier solution containing no test compound were also sprayed on infested plants. When dry, the paired leaves were separated and each one was placed in a 9 centimeter Petric dish lined with moistened filter paper. Five randomly selected larvae were introduced into each dish and the dishes were closed. The closed dishes were labeled and held at 80°-85° F. for three days. Although the larvae could easily consume the whole leaf within twenty-four hours, no more food was added. Larvae which were unable to move the length of the body, even upon stimulation by prodding, were considered dead. Per cent mortality was recorded for various concentration levels.
as §3

SMILES | Mexican Bean Beetle pesticidal activity rating [1] | Bean Aphid pesticidal activity rating [2] | House-Fly pesticidal activity rating [3] | LD50 [4] [mg/kg] | Mite pesticidal activity rating [5] | Southern Armyworm pesticidal activity rating [6]
CNC(=O)ON=C1SC(=NC(C)(C)C)SC1(C)C [L] | A | A | A | 31.5 | A | B
CC(C)N=C1SC(=NOC(=O)N(C)SC(Cl)(Cl)Cl)C(C)(C)S1 [XLVIII] | A | A | A | 226 | A | C
CC(C)N=C1SC(=NOC(=O)N(C)SN(C)C(=O)ON=C2SC(=NC(C)C)SC2(C)C)C(C)(C)S1 [XLIV, N,N'-Bis-[[5,5-Dimethyl-2-isopropylimino-4-[O-(N-methylcarbamoyl)oximino]-1,3-dithiolane]] sulfide] | A | B | B | 113 | C | C
CCN=C1SC(=NOC(=O)NC)C(C)(C)S1 [XLVI] | A | A | A | 6.3 | C | B
CNC(=O)ON=C1SC(=NC(C)C)SC1(C)C [XLVII] | A | A | A | 8.9 | A | C
